# From paper PMC10528299, “Targeting FAK/PYK2 with SJP1602 for Anti-Tumor Activity in Triple-Negative Breast Cancer” (Current Issues in Molecular Biology, 2023)
# Tests used:
# MDA-MB-231 cells = assay: Colony formation assay; assay type: cell-based, human; settings: 1 μM or 2 μM, 11 days
# Experimental: MDA-MB-231 cells were seeded at 2.5 × 10^2 cells/well in 12-well plates. FAK inhibitors (SJP1602, VS-6063, GSK2256098) were added 24 h post seeding without changing the media. After 7 days, the cells were replaced with fresh media containing 10% FBS and the same initial concentration of the FAK inhibitor. After 11 days, the cells were fixed with 4% PFA for 10 m at room temperature and stained with 0.5% crystal violet dissolved in 25% methanol for 20 min at room temperature. The cells were then washed with distilled water, dried, and images of the entire plate were obtained.
# Insulin Receptor (InsR) = target: T1, Insulin Receptor (InsR) (Homo sapiens, UniProt P06213); assay: ADP-Glo kinase assay InsR; assay type: biochemical; settings: mean ± SEM (n = 3)
# T1 construct: purchased Promega V3901
# Experimental: The kinase assays were performed and quantified according to the manufacturer’s instructions using the ADP-Glo™ Kinase Assay Kit for FAK (Promega, V1971), PYK2 (Promega, V4083) and InsR (Promega, V3901). Each kinase reaction mixture was prepared to contain the compounds of interest. After thorough pipetting, 25 μL of the mixture was added to each well and incubated for 1 h at room temperature. Subsequently, 25 μL of ADP-Glo reagent was added, followed by a 40 m incubation at room temperature. Next, 50 μL of the kinase detection reagent was added, and the mixture was incubated for an additional 30 m at room temperature. Luminescence was measured using the Tecan Spark 10M (Integration time: 1 s) (Männedorf, Switzerland).
# [1] = Pharmacokinetics in SD rats; assay type: in vivo, rat
# Experimental: The pharmacokinetics (PK) study was conducted in male SD rats. Three rats received a single-dose intravenous injection of SJP1602 at 5 mg/kg, and another set of three rats received a single-dose oral administration of SJP1602 at 20 mg/kg. The vehicle composition used was DMA 3% and Cremophor ELP 4%. Blood drug concentrations over time were determined by drawing blood after 0.17, 0.5, 1, 2, 4, 6, and 24 h. Plasma was isolated using K3EDTA anticoagulation tubes, and the drug concentration in the plasma was analyzed by LC/MS/MS (Waters, MA, USA). To analyze the concentration of pretreated rat plasma samples, a Waters Acquity ultra-performance liquid chromatography system (UPLC, Waters) was employed, in tandem with a C18 column (Acquity UPLC® BEH C18 1.7 μm, 2.1 × 50 mm). The mass spectrometry analysis was conducted using the Waters Xevo-TQ-S micro. For the mobile phases, phase A consisted of distilled water with 0.1% formic acid, while phase B comprised methanol, also with 0.1% formic acid. PK parameters were subsequently derived using WinNonlin software (version 2.1), which enabled the determination of AUC (ng×h/mL), Cmax (ng/mL), and bioavailability (BA). The area under the drug concentration curve (AUC) was calculated utilizing the trapezoidal rule, focusing on the time interval AUC0–24h.
# [2] = Cytotoxicity on normal cell line FDF; assay type: cell-based; settings: FDF cells (normal cell line); read-out: Cytotoxicity on Normal Cell Lines IC50
# [3] = target: T2, FAK [pY397] in MDA-MB-231 cells (Homo sapiens, UniProt Q05397); assay: FAK [pY397] ELISA in MDA-MB-231 cells; assay type: cell-based; settings: MDA-MB-231, 1 h treatment, mean ± SEM (n = 3); read-out: IC50 FAK phosphorylation (pY397 ELISA)
# T2 construct: endogenous in cells; host or cells: MDA-MB-231
# Experimental: TNBC cells were seeded into 60 mm dishes at a density of 1 × 10^6 cells/dish in 5 mL of culture media. After 24 h, cells were treated with concentrations ranging from 1 nM to 10 μM of SJP1602 for 1 h, and cell lysates were prepared to detect phospho-FAK levels. The FAK [pY397] enzyme-linked immunosorbent assay was performed according to the manufacturer’s instructions. The absorbance at 450 nm was measured to quantify the results.
# [4] = Cytotoxicity on normal cell line Fa2N4; assay type: cell-based; settings: human, Fa2N4 cells (normal cell line); read-out: Cytotoxicity on Normal Cell Lines IC50
# [5] = male, SD, rat, plasma, po, 20 mg/kg, po 20 mg/kg, male SD rats
# [6] = rat, plasma, iv 5 mg/kg, male SD rats
# [7] = rat, plasma, po 20 mg/kg, male SD rats
# T2 sequence (Q05397 whole entry): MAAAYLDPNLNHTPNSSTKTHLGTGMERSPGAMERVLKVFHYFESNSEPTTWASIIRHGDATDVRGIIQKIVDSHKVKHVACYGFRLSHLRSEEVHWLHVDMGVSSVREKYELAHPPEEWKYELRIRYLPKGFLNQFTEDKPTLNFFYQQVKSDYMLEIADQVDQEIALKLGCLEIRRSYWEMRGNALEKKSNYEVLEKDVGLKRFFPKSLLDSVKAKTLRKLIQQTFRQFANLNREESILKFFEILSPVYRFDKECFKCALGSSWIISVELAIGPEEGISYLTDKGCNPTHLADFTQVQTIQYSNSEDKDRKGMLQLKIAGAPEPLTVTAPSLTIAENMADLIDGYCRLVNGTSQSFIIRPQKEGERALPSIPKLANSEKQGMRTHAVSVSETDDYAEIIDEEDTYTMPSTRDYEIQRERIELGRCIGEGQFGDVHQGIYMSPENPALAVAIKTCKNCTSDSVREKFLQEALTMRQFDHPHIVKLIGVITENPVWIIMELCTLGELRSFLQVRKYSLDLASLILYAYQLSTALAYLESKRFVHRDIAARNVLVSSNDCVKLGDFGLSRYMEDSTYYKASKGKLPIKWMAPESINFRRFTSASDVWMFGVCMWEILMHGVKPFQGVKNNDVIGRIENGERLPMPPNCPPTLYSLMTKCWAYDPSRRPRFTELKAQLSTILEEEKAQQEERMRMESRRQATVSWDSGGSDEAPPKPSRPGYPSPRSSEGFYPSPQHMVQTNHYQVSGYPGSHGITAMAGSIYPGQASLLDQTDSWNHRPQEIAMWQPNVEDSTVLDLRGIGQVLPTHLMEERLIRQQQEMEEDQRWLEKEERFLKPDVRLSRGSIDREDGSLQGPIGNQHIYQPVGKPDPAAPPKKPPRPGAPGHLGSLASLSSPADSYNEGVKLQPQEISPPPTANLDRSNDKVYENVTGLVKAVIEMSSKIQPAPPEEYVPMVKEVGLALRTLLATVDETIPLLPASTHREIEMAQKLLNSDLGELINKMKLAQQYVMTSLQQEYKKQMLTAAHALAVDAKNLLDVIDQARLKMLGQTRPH
# T1 sequence (P06213 28-1382): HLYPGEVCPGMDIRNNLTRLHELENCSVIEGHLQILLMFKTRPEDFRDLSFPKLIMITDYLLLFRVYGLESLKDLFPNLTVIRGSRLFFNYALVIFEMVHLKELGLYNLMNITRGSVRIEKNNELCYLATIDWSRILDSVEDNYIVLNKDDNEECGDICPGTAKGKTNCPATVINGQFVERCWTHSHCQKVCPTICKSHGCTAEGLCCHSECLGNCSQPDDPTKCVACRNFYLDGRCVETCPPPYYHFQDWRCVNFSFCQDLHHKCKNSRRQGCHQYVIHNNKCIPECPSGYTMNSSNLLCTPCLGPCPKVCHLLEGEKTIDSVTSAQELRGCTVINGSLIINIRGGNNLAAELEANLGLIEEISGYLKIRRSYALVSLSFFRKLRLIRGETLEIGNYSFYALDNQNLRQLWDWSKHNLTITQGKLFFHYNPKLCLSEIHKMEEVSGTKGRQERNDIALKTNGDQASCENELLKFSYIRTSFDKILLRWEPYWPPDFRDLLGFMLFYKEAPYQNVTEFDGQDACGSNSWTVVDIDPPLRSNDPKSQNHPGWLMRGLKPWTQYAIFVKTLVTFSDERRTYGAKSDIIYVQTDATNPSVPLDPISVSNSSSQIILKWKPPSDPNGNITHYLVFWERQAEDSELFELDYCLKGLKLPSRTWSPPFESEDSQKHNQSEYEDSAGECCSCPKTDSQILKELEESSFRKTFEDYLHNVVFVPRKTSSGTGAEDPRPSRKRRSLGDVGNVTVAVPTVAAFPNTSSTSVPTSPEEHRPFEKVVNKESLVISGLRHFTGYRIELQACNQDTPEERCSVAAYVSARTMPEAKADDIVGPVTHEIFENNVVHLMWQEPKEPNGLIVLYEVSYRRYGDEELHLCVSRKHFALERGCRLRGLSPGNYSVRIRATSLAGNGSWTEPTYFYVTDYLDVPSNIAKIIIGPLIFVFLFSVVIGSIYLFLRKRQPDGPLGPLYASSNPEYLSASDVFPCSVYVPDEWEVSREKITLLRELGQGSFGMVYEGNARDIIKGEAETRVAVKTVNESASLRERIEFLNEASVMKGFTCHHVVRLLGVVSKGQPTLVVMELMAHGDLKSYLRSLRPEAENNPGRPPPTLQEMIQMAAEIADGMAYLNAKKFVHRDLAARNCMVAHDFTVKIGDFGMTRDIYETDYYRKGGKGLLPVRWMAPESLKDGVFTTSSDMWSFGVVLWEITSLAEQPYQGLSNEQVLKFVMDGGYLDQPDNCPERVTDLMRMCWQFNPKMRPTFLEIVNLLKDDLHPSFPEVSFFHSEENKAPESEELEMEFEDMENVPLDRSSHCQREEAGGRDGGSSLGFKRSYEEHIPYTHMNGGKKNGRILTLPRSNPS
smiles,measurement,setting,value
"CNC(=O)c1cccc(C)c1Nc1nc(Nc2ccc(N3CCN(C4C5CC6CC4CC(O)(C6)C5)CC3)cc2OC)ncc1C(F)(F)F (centres unmarked) [SJP1602, 2-((2-((4-(4-((2s,5r)-5-hydroxyadamantan-2-yl)piperazin-1-yl)-2-methoxyphenyl)amino)-5-(trifluoromethyl)pyrimidin-4-yl)amino)-N,3-dimethylbenzamide]",formation of MDA-MB-231 colonies,MDA-MB-231 cells,dose-dependent decrease
same,IC50,Insulin Receptor (InsR),1.17 ± 0.0601 µM
same,half-life,"[1]; male, SD, rat, plasma, iv, 5 mg/kg, iv 5 mg/kg, male SD rats",0.93 ± 0.25 h
same,bioavailability,[1]; [5],45%
same,half-life,[1]; [5],2.2 h
same,AUC,"[1]; male, SD, rat, plasma, single oral dose 20 mg/kg, rats, read-out: area under the curve (AUC)",22 µM·h
same,T1/2,"[1]; po 20 mg/kg, male SD rats, 20 mg/kg",2.24 ± 0.19 h
same,AUC(0-t),[1]; [6],7.07 µg·h/mL
same,Cmax,[1]; [6],3.89 µg/mL
same,Tmax,[1]; [6],0.28 h
same,AUC(0-t),[1]; [7],14.7 µg·h/mL
same,Cmax,[1]; [7],3.27 µg/mL
same,Tmax,[1]; [7],1 h
same,peak concentration,"[1]; single oral dose 20 mg/kg, rats",4.9 µmol/L
same,IC50,[2],> 10 µM
same,IC50,[3],0.02 ± 0.007 µM
same,IC50,[4],9.62 µM
